Measurements taken from US11014915B2, “Selective estrogen receptor degrader” (SUN PHARMA ADVANCED RESEARCH COMPANY LIMITED, priority 2019, dated 2021).
Residue numbers refer to the chain shown, from its start.

Legend:
Format in all cases: cell-based
[1] = tested on: MCF-7 cells harboring mutant ER (WT/D538G); assay: MCF-7 cell growth inhibition assay, D538G; conditions: Homo sapiens, MCF7, 168 h; MCF-7 D538G, seven-day incubation
Experimental: MCF-7 Cell Growth Inhibition Assay:
The anti-proliferative activity of the test compounds were evaluated in a growth inhibition assay. Briefly, MCF-7 cells harboring ER wild type (Wt), and MCF-7 cells harboring mutant ER (WT/D538G and WT/Y537S) were seeded at a density of 1000 cells/well in 96-well plate in phenol red free RPMI1640 medium supplemented with 10% charcoal stripped fetal bovine serum. The cells were incubated overnight at 37° C. and 5% CO2 followed by the addition of varying concentrations of the test compounds in DMSO. Final concentration of DMSO in the well was 0.5%. Following a seven-day incubation of cells with the test compounds, cell viability was assessed using a Prestoblue™ reagent. The percent inhibition of cell proliferation was calculated by normalizing the cell viability using a vehicle control as 0% inhibition of proliferation.

[2] = target: T1, ER-α in MCF-7 cells harboring mutant ER (WT/D538G) (Homo sapiens, UniProt P03372, D538G); assay: ER-α degradation (SERD) assay, MCF-7 D538G; conditions: for DC50: MCF-7 D538G, 4 days, read-out: ER-α degradation assay D538G IC50
T1 construct: MCF-7 cells harboring mutant ER (WT/D538G and WT/Y537S); endogenous in cells; host or cells: MCF-7 D538G (WT/D538G)
T1 sequence (P03372 1-595 D538G): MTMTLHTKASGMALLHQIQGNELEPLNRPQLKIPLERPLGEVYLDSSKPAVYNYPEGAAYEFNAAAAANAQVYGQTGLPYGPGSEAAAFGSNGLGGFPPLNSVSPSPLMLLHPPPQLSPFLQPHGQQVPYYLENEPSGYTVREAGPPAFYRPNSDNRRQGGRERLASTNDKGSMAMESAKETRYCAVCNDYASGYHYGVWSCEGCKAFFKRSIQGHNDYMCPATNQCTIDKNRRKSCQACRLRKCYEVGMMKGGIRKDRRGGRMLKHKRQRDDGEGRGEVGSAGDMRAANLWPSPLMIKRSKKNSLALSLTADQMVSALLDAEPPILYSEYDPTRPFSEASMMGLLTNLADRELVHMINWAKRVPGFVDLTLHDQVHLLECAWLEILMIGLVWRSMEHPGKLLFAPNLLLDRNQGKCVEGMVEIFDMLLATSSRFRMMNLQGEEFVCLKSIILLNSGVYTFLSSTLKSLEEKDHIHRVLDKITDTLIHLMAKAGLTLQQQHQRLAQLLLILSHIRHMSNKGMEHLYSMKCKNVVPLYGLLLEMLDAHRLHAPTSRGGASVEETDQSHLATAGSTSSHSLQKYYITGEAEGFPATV
Experimental: (§1) Selective Estrogen Receptor Degradation (SERD) Assay:
(§2) The SERD activity for the test compounds was evaluated in MCF-7 cells harboring ER wild type, and MCF-7 cells harboring mutant ER (WT/D538G and WT/Y537S). Briefly, cells were plated in phenol red free RPMI1640 medium supplemented with 5% charcoal stripped fetal bovine serum. The seeding density was 40000 cells/well for MCF-7 WT and MCF-7 D538G and 50000 cells/well MCF-7 Y537S in a 48-well plate. Following overnight incubation, the cells were treated with varying concentrations of test compounds (final concentration: 1000 nM to 0.01 nM, 0.1% DMSO) for 4 days. The cells were lysed using PBS supplemented with 1 mM EDTA, 0.5% Triton X-100, 5 mM NaF, 6 M urea, and 1× Protease inhibitor cocktail. The lysate was analyzed for ER alpha protein using western blot. For the western blot, the cell lysate (12.5-40 μg total protein) was resolved on a 10% SDS PAGE and transferred onto a PVDF membrane. The blots were blocked using 5% skim milk powder in 0.1% PBS-T for 1 hour at room temperature, followed by co-incubation with rabbit anti-human β-actin antibody and rabbit anti-human ERα antibody for 2 hours at room temperature. The blots were subsequently probed with anti-rabbit IgG-HRP conjugate as secondary antibody for 1 hour at room temperature. The blots were developed by using West Pico Super Signal Chemiluminescence substrate and the bands were processed for densitometry analysis using Image Lab software (BioRad version 6.0.0). ERα band intensity was normalized to that housekeeping protein for respective samples. The % ER remaining was calculated by normalizing against the vehicle control (as 100%).

[3] = target: T2, ER-α in MCF-7 cells harboring ER wild type (Homo sapiens, UniProt P03372); assay: ER-α degradation (SERD) assay, MCF-7 wild type; conditions: for % of ER-α remaining at 1 nM / DC50: MCF-7 Wt, 4 days; for % of ER-α remaining at 1 nM: western blot, vehicle control as 100%; for DC50: read-out: ER-α degradation assay Wt IC50
T2 construct: evaluated in MCF-7 cells harboring ER wild type; endogenous in cells; host or cells: MCF-7
T2 sequence (P03372 1-595): T1 sequence (P03372 1-595 D538G) with G538D
Experimental: as §1, §2

Row | IC50 [1] [nM] | ER-α degradation in mutated cell line (in words) ([2]; D538G) | DC50 [2] [nM] | % of ER-α remaining at 1 nM [3] [%] | DC50 [3] [nM] | Potency of Formula Ia relative to Formula Ib in ER-α degradation ([3]; wild type) | Structure (SMILES)
1 | 345 | no ER-α degradation | > 1000 | 81.5 | 10.2 |  | CC1=C(c2cc(F)cc(F)c2)[C@@H](c2ccc(/C=C/CN3CC(CF)C3)cc2)Oc2cc(O)ccc21 [Formula Ib, (2R)-3-(3,5-difluorophenyl)-2-[4-[(E)-3-[3-(fluoromethyl)azetidin-1-yl]prop-1-enyl]phenyl]-4-methyl-2H-chromen-7-ol]
2 | 2.2 |  | 12.7 | 16.3 | 0.3 | about 34 times | CC1=C(c2cc(F)cc(F)c2)[C@H](c2ccc(/C=C/CN3CC(CF)C3)cc2)Oc2cc(O)ccc21 [Formula Ia, (2S)-3-(3,5-difluorophenyl)-2-[4-[(E)-3-[3-(fluoromethyl)azetidin-1-yl]prop-1-enyl]phenyl]-4-methyl-2H-chromen-7-ol]
